The series in a line: Thermal stability (purity by GC-FID after heating with absorbent). The class given is physicochemical. The note with it: initial purity 97.7%. How it is done:
The samples were stirred for 24 h at 50° C. and then analyzed for purity by GC-FID. The % purity EX-6 initially was 97.7%. Shown in Table 2 below are the % purity after the thermal stability test. All of the results are within error of the test method.

Consider `CO/C(=N\C(F)(F)C(F)(F)C(F)(F)F)C(F)(F)C(F)(F)F` [EX-6, methyl 2,2,3,3,3-pentafluoro-N-(perfluoropropyl)propanimidate], for which the “Purity (%) after thermal stability test” value came out at 98.0% (100 mg 4 Angstrom Molecular Sieves, 1 g stirred 24 h at 50° C.); 98.2% (100 mg Activated Carbon, 1 g stirred 24 h at 50° C.); 98.0% (100 mg Basic Alumina, 1 g stirred 24 h at 50° C.); 97.9% (100 mg K2CO3, 1 g stirred 24 h at 50° C.); 97.9% (100 mg Silica Gel, 1 g stirred 24 h at 50° C.); 97.7% (No absorbent, 1 g stirred 24 h at 50° C.).

These data come from US11053206B2, “Hydrofluorocarboximidate and methods of making and using the same” (3M INNOVATIVE PROPERTIES COMPANY, priority 2017, dated 2021).
